Like-named read-outs stand apart in the source and are kept apart here. Each block holds one molecule with its values, some of them ahead of it.
Experiments:
[1] = in vivo
[2] = humans, cited from earlier work
[3] = Canine, cited from earlier work
gastric pH = conditions: horses, cited from earlier work
[4] = Plasma pharmacokinetics of esomeprazole and esomeprazole sulfone in goats after IV and SC administration (HPLC, non-compartmental analysis); conditions: for C0: C0, goats; for MRT inf: MRTinf; for k el: λz; for Vd/F: Vz/F
[5] = design: method as in PMID 34631865; conditions: goats, intravenously or subcutaneously administered, all animals; cited from earlier work
[6] = system: pH of the third compartment; design: method as in PMID 20384953; conditions: alpacas, administered IV or SC; cited from earlier work
[7] = both, pygmy and pygmy-cross, plasma, iv, 1 mg/kg
[8] = both, pygmy and pygmy-cross, plasma, iv, 1 mg/kg, goats, 1 mg/kg IV single dose, geomean, n = 5
[9] = both, pygmy and pygmy-cross, plasma, iv, 1 mg/kg, goats, 1 mg/kg IV single dose, median, n = 5
[10] = both, pygmy and pygmy-cross, plasma, sc, 2 mg/kg
[11] = both, pygmy and pygmy-cross, plasma, sc, 2 mg/kg, goats, 2 mg/kg SC (SQ) single dose, geomean, n = 5
[12] = both, pygmy and pygmy-cross, plasma, sc, 2 mg/kg, goats, 2 mg/kg SC (SQ) single dose, median, n = 5
[13] = goats, 1 mg/kg IV single dose, plasma, geomean, n = 5
[14] = goats, 1 mg/kg IV single dose, plasma, median, n = 5
[15] = goats, 2 mg/kg SC (SQ) single dose, plasma, geomean, n = 5
[16] = goats, 2 mg/kg SC (SQ) single dose, plasma, median, n = 5

time detectable in plasma [1]: < 4 h
detection of sulfone metabolite in plasma ([1]; sc): no detectable sulfone metabolite
Structure (SMILES): COc1ccc2[nH]c(S(=O)(=O)Cc3ncc(C)c(OC)c3C)nc2c1 [Esomeprazole Sulfone, esomeprazole sulfone]
activity of the metabolite within the body [2]: not active

F (bioavailability) ([4]; Goat, 2 mg/kg SC vs 1 mg/kg IV, AUCSC/AUCIV x DoseIV/DoseSC): 116%
AUC(0-inf) [4, 7]: 440 ng·h/mL
AUC(0-t) [4, 7]: 440 ng·h/mL
C0 ([4]; both, pygmy and pygmy-cross, plasma, iv, 1 mg/kg, 1 mg/kg IV single dose, geomean, n = 5): 2320 ng/mL
C0 ([4]; both, pygmy and pygmy-cross, plasma, iv, 1 mg/kg, 1 mg/kg IV single dose, median, n = 5): 2880 ng/mL
Cmax ([4]; both, pygmy and pygmy-cross, plasma, iv, 1 mg/kg, C0/Cmax, Goat, 1 mg/kg IV (Table 3 comparison)): 2320 ng/mL
clearance ([4]; both, pygmy and pygmy-cross, plasma, iv, 1 mg/kg, Cl (plasma clearance), goats, 1 mg/kg IV single dose, geomean, n = 5): 24.9 mL/min/kg
clearance ([4]; both, pygmy and pygmy-cross, plasma, iv, 1 mg/kg, Cl (plasma clearance), goats, 1 mg/kg IV single dose, median, n = 5): 21.9 mL/min/kg
clearance ([4]; both, pygmy and pygmy-cross, plasma, iv, 1 mg/kg, Cl, Goat, 1 mg/kg IV (Table 3 comparison)): 25 mL/min/kg
MRT inf [4, 8]: 9.19 min
MRT inf [4, 9]: 8.41 min
Vd ([4]; both, pygmy and pygmy-cross, plasma, iv, 1 mg/kg, Vss, Goat, 1 mg/kg IV (Table 3 comparison)): 0.23 L/kg
Vd ([4]; both, pygmy and pygmy-cross, plasma, iv, 1 mg/kg, Vz (volume of distribution), goats, 1 mg/kg IV single dose, geomean, n = 5): 0.23 L/kg
Vd ([4]; both, pygmy and pygmy-cross, plasma, iv, 1 mg/kg, Vz (volume of distribution), goats, 1 mg/kg IV single dose, median, n = 5): 0.19 L/kg
k el [4, 8]: 0.00183 s⁻¹
k el [4, 9]: 0.00183 s⁻¹
AUC(0-inf) [4, 10]: 1030 ng·h/mL
AUC(0-t) [4, 10]: 1020 ng·h/mL
Cmax ([4]; both, pygmy and pygmy-cross, plasma, sc, 2 mg/kg, C0/Cmax, Goat, 2 mg/kg SQ (Table 3 comparison)): 1040 ng/mL
Cmax ([4]; both, pygmy and pygmy-cross, plasma, sc, 2 mg/kg, Cmax, goats, 2 mg/kg SC (SQ) single dose, geomean, n = 5): 1040 ng/mL
Cmax ([4]; both, pygmy and pygmy-cross, plasma, sc, 2 mg/kg, Cmax, goats, 2 mg/kg SC (SQ) single dose, median, n = 5): 1060 ng/mL
bioavailability ([4]; both, pygmy and pygmy-cross, plasma, sc, 2 mg/kg, F (bioavailability), Goat, 2 mg/kg SC vs 1 mg/kg IV, AUCSC/AUCIV x DoseIV/DoseSC): > 100%
MRT inf [4, 11]: 51.7 min
MRT inf [4, 12]: 52.1 min
half-life ([4]; both, pygmy and pygmy-cross, plasma, sc, 2 mg/kg, T1/2 (λz) elimination half-life, goats, 2 mg/kg SC (SQ) single dose, geomean, n = 5): 29 min
half-life ([4]; both, pygmy and pygmy-cross, plasma, sc, 2 mg/kg, T1/2 (λz) elimination half-life, goats, 2 mg/kg SC (SQ) single dose, median, n = 5): 26.8 min
half-life ([4]; both, pygmy and pygmy-cross, plasma, sc, 2 mg/kg, T1/2 (λz), Goat, 2 mg/kg SQ): 29.4 min
Tmax ([4]; both, pygmy and pygmy-cross, plasma, sc, 2 mg/kg, Tmax, goats, 2 mg/kg SC (SQ) single dose, geomean, n = 5): 22 min
Tmax ([4]; both, pygmy and pygmy-cross, plasma, sc, 2 mg/kg, Tmax, goats, 2 mg/kg SC (SQ) single dose, median, n = 5): 20 min
Vd/F [4, 11]: 0.9 L/kg
Vd/F [4, 12]: 0.78 L/kg
k el [4, 11]: 0.0004 s⁻¹
k el [4, 12]: 0.000433 s⁻¹
AUCinf [4, 13]: 442 ng·h/mL
AUClast [4, 13]: 439 ng·h/mL
AUMCinf [4, 13]: 244 min²·µg/mL
AUCinf [4, 14]: 397 ng·h/mL
AUClast [4, 14]: 394 ng·h/mL
AUMCinf [4, 14]: 222 min²·µg/mL
AUCinf [4, 15]: 1030 ng·h/mL
AUClast [4, 15]: 1020 ng·h/mL
AUMCinf [4, 15]: 3200 min²·µg/mL
Tmax ([4]; goats, 2 mg/kg SC (SQ) single dose, plasma, geomean, n = 5, 2 mg/kg): 21.69 min
AUCinf [4, 16]: 979 ng·h/mL
AUClast [4, 16]: 959 ng·h/mL
AUMCinf [4, 16]: 3780 min²·µg/mL
plasma concentrations detected over time ([4]; goats, IV (1 mg/kg) and SC (2 mg/kg), any animal): not detected after 4 h
Structure (SMILES): COc1ccc2nc([S@@+]([O-])Cc3ncc(C)c(OC)c3C)[nH]c2c1 [Esomeprazole, esomeprazole]
AUCinf ([3]; 1 mg/kg IV): 3820 ng·h/mL
AUClast ([3]; 1 mg/kg IV): 3820 ng·h/mL
Cl ([3]; 1 mg/kg IV): 5 mL/min/kg
T1/2 (λz) ([3]; 1 mg/kg IV): 43.8 min
Vss ([3]; 1 mg/kg IV): 0.27 L/kg
AUCinf ([3]; 1 mg/kg SQ): 4070 ng·h/mL
AUClast ([3]; 1 mg/kg SQ): 4070 ng·h/mL
C0/Cmax ([3]; 1 mg/kg SQ): 2620 ng/mL
F (bioavailability) ([3]; 1 mg/kg SQ): 106%
T1/2 (λz) ([3]; 1 mg/kg SQ): 54 min
gastric pH raised to (gastric pH; administered intravenously): ≥ 4
tolerability of maintenance therapy ([2]; daily for up to 6 months): generally well-tolerated
clearance ([4]; both, pygmy and pygmy-cross, plasma, iv, 1 mg/kg, clearance, goats, 1 mg/kg IV, not normalised to body weight): 1050 mL/min

Structure (SMILES): COc1ccc2[n-]c([S+]([O-])Cc3ncc(C)c(OC)c3C)nc2c1.COc1ccc2[n-]c([S+]([O-])Cc3ncc(C)c(OC)c3C)nc2c1.[Mg+2] (stereo not shown) [esomeprazole magnesium]
gastric pH maintained (gastric pH; orally 60 or 80 mg, for up to 6 h post administration): ≥ 5
adverse reactions (gastric pH; orally 60 or 80 mg): No adverse reactions were found

Structure (SMILES): COc1ccnc(C[S+]([O-])c2nc3ccc(OC(F)F)cc3[nH]2)c1OC (stereo not shown) [pantoprazole]
plasma concentration detected over time [5]: undetectable after 4 h
effect on pH of the third compartment [6]: significantly increased the pH of the third compartment
